{"source": "patent US4791114A", "about": "“2-Benzimidazolylalkylthio (or -sulfinyl or -sulfonyl) derivatives, their preparation and their application as medicinal products” (501 Laboratorios Del, Dr. Esteve, priority 1986, dated 1988)", "key": {"gastric acid secretion": {"tested_on": "gastric acid secretion", "experiment": "Inhibition of gastric acid secretion in Shay rats (pylorus ligation)", "assay_type": "in vivo, male Wistar rats", "conditions": "Rattus norvegicus, 2 h, intraduodenal, two hours after pylorus ligation; for inhibition in vivo at 40 mg/kg: i.d., read-out: Percentage inhibition of gastric acid secretion", "from_the_text": "Method of Shay [Shay, H.; Komarov, S. A.; Feis, S. S.; Merange, D.; Grvenstein, M.; Siplet, H.; Gastroenterology, 5, 43 (1945)--Visscher, F. E.; Seay, P. H.; Taxelaar, A. P.; Veldkamp, W.; Vander Brook, M. J.; J. Pharmac. Exp. Ther., 110, 188 (1954)--\"Animal Experiments in Pharmacological Analysis\", F. R. Domer; C. C. Thomas Pub., Springfield, Ill., USA, 1970, p. 140].\nIn this test, male Wistar rats weighing 200 to 250 grams are used, the animals being maintained fasted from the day preceding that of the trail, with access to water ad libitum. A minimum of 4 animals is used in each batch.\nThe rats are anesthetized with ethyl ether, laporotomy is performed and the pylorus is ligated, and the abdominal incision is then sutured. The administration of the products, with the vehicle for the control batch, is performed intraduodenally (i.d.) before the abdominal incision is sutured. The dose administered for the first trail is 40 mg/kg, and the fifty percent effectove dose (ED50) i.d. is also determined in a second trial. The vehicle used is 5% w/v gum arabic in double-distilled water.\nTwo hours after ligation of the pyrolus, the rats are sacrificed by prolonged anesthesia with ethyl ether, and the volume of the gastric juice is measured and the total acidity determined by means of a pH meter equipped with an automatic burette. For each product and for each dose tested, the percentage inhibition of gastric acid secretion is determined relative to the control batch."}, "[1]": {"experiment": "Acute toxicity in mice (oral LD50, Litchfield and Wilcoxon)", "conditions": "mouse, in vivo, suspended in 5% gum arabic", "protocol": "Method of Litchfield and wilcoxon [Litchfield, J. T. and Wilcoxon, E. J., H. Pharmacol. Exp. Therap., 96, 19-113 (1949)].\nThe product is administered orally, suspended in 5% gum arabic in double-distilled water. The volume administered is 10 ml/kg. The fifty percent lethal dose (LD50) is calculated according to the method cited."}}, "data": [{"compound": "c1cnc(SCc2nc3ccccc3[nH]2)nc1", "note": "[Example 1, 2-(2-benzimidazolylmethylthio)pyrimidine]", "values": [{"measurement": "ED50", "setting": "gastric acid secretion", "result": 13, "unit": "mg/kg"}, {"measurement": "inhibition in vivo at 40 mg/kg", "setting": "gastric acid secretion", "result": 98, "unit": "%"}, {"measurement": "LD50", "setting": "[1]; female mice", "result": 2700, "unit": "mg/kg"}, {"measurement": "LD50", "setting": "[1]; male mice", "result": 3200, "unit": "mg/kg"}]}, {"compound": "Cc1cc(C)nc(SCc2nc3ccccc3[nH]2)n1", "note": "[Example 3]", "values": [{"measurement": "ED50", "setting": "gastric acid secretion", "result": 16, "unit": "mg/kg"}, {"measurement": "inhibition in vivo at 40 mg/kg", "setting": "gastric acid secretion", "result": 88, "unit": "%"}, {"measurement": "LD50", "setting": "[1]; female mice", "result": "> 3200", "unit": "mg/kg"}, {"measurement": "LD50", "setting": "[1]; male mice", "result": "> 3200", "unit": "mg/kg"}]}, {"compound": "O=[N+]([O-])c1ccc(SCc2nc3ccccc3[nH]2)nc1", "note": "[Example 4]", "values": [{"measurement": "ED50", "setting": "gastric acid secretion", "result": 21, "unit": "mg/kg"}, {"measurement": "inhibition in vivo at 40 mg/kg", "setting": "gastric acid secretion", "result": 74, "unit": "%"}]}, {"compound": "Cc1cc2nc(CSc3ccccn3)[nH]c2cc1C", "note": "[Example 6, 5,6-dimethyl-2-(2-pyridylthiomethyl)benzimidazole]", "values": [{"measurement": "ED50", "setting": "gastric acid secretion", "result": 19, "unit": "mg/kg"}, {"measurement": "inhibition in vivo at 40 mg/kg", "setting": "gastric acid secretion", "result": 92, "unit": "%"}]}, {"compound": "[O-][n+]1ccccc1SCc1nc2ccccc2[nH]1", "note": "[Example 7]", "values": [{"measurement": "ED50", "setting": "gastric acid secretion", "result": 19, "unit": "mg/kg"}, {"measurement": "inhibition in vivo at 40 mg/kg", "setting": "gastric acid secretion", "result": 95, "unit": "%"}]}, {"compound": "O=C(c1ccccc1)c1ccc2nc(CSc3ccccn3)[nH]c2c1", "note": "[Example 10, 5-benzoyl-2-(2-pyridylthiomethyl)benzimidazole]", "values": [{"measurement": "ED50", "setting": "gastric acid secretion", "result": 14, "unit": "mg/kg"}, {"measurement": "inhibition in vivo at 40 mg/kg", "setting": "gastric acid secretion", "result": 93, "unit": "%"}]}, {"compound": "O=C(c1ccccc1)c1ccc2nc(C[S+]([O-])c3ccccn3)[nH]c2c1", "note": "(centres unmarked) [Example 27, 5-benzoyl-2-(2-pyridylsulfinylmethyl)benzimidazole]", "values": [{"measurement": "ED50", "setting": "gastric acid secretion", "result": 7, "unit": "mg/kg"}, {"measurement": "inhibition in vivo at 40 mg/kg", "setting": "gastric acid secretion", "result": 95, "unit": "%"}, {"measurement": "LD50", "setting": "[1]; female mice", "result": 3200, "unit": "mg/kg"}, {"measurement": "LD50", "setting": "[1]; male mice", "result": 3200, "unit": "mg/kg"}]}, {"compound": "[O-][S+](Cc1nc2ccccc2[nH]1)c1ccccn1", "note": "(centres unmarked) [Example 28, 2-(2-pyridylsulfinylmethyl)benzimidazole]", "values": [{"measurement": "ED50", "setting": "gastric acid secretion", "result": 8, "unit": "mg/kg"}, {"measurement": "inhibition in vivo at 40 mg/kg", "setting": "gastric acid secretion", "result": 90, "unit": "%"}, {"measurement": "LD50", "setting": "[1]; female mice", "result": 3200, "unit": "mg/kg"}, {"measurement": "LD50", "setting": "[1]; male mice", "result": 3200, "unit": "mg/kg"}]}, {"compound": "O=[N+]([O-])c1ccc([S+]([O-])Cc2nc3ccccc3[nH]2)nc1", "note": "(centres unmarked) [Example 29]", "values": [{"measurement": "ED50", "setting": "gastric acid secretion", "result": 4, "unit": "mg/kg"}, {"measurement": "inhibition in vivo at 40 mg/kg", "setting": "gastric acid secretion", "result": 90, "unit": "%"}, {"measurement": "LD50", "setting": "[1]; female mice", "result": 2400, "unit": "mg/kg"}, {"measurement": "LD50", "setting": "[1]; male mice", "result": 2400, "unit": "mg/kg"}]}, {"compound": "Cc1cc2nc(C[S+]([O-])c3ccccn3)[nH]c2cc1C", "note": "(centres unmarked) [Example 31]", "values": [{"measurement": "ED50", "setting": "gastric acid secretion", "result": 15, "unit": "mg/kg"}, {"measurement": "inhibition in vivo at 40 mg/kg", "setting": "gastric acid secretion", "result": 96, "unit": "%"}, {"measurement": "LD50", "setting": "[1]; female mice", "result": "> 6400", "unit": "mg/kg"}, {"measurement": "LD50", "setting": "[1]; male mice", "result": "> 6400", "unit": "mg/kg"}]}, {"compound": "[O-][S+](Cc1nc2cc(Cl)ccc2[nH]1)c1ccccn1", "note": "(centres unmarked) [Example 32]", "values": [{"measurement": "ED50", "setting": "gastric acid secretion", "result": 17, "unit": "mg/kg"}, {"measurement": "inhibition in vivo at 40 mg/kg", "setting": "gastric acid secretion", "result": 92, "unit": "%"}]}, {"compound": "Cc1cnc([S+]([O-])Cc2nc3cc(C(=O)c4ccccc4)ccc3[nH]2)c(C)c1", "note": "(centres unmarked) [Example 41]", "values": [{"measurement": "ED50", "setting": "gastric acid secretion", "result": 10, "unit": "mg/kg"}, {"measurement": "inhibition in vivo at 40 mg/kg", "setting": "gastric acid secretion", "result": 80, "unit": "%"}]}, {"compound": "Cc1ccnc([S+]([O-])Cc2nc3cc(C(=O)c4ccccc4)ccc3[nH]2)c1", "note": "(centres unmarked) [Example 44]", "values": [{"measurement": "ED50", "setting": "gastric acid secretion", "result": 10, "unit": "mg/kg"}, {"measurement": "inhibition in vivo at 40 mg/kg", "setting": "gastric acid secretion", "result": 66, "unit": "%"}]}, {"compound": "O=S(=O)(Cc1nc2ccc(Cl)cc2[nH]1)c1ccccn1", "note": "[Example 54, 5-chloro-2-(2-pyridylsulfonylmethyl)benzimidazole]", "values": [{"measurement": "ED50", "setting": "gastric acid secretion", "result": 24, "unit": "mg/kg"}, {"measurement": "inhibition in vivo at 40 mg/kg", "setting": "gastric acid secretion", "result": 70, "unit": "%"}]}, {"compound": "Cn1c(C[S+]([O-])c2ccccn2)nc2cc(C(=O)c3ccccc3)ccc21", "note": "(centres unmarked) [Example 60, 5-benzoyl-1-methyl-2-(2-pyridylsulfinylmethyl)benzimidazole]", "values": [{"measurement": "ED50", "setting": "gastric acid secretion", "result": 21, "unit": "mg/kg"}, {"measurement": "inhibition in vivo at 40 mg/kg", "setting": "gastric acid secretion", "result": 75, "unit": "%"}]}, {"compound": "CCOC(=O)n1c(C[S+]([O-])c2ccccn2)nc2ccc(C(=O)c3ccccc3)cc21", "note": "(centres unmarked) [Example 63, 6-benzoyl-1-carboxyethyl-2-(2-pyridylsulfinylmethyl)benzimidazole]", "values": [{"measurement": "ED50", "setting": "gastric acid secretion", "result": 16, "unit": "mg/kg"}, {"measurement": "inhibition in vivo at 40 mg/kg", "setting": "gastric acid secretion", "result": 81, "unit": "%"}]}]}
